Assay results published in patent US20250098679A1, “HERBICIDAL PYRIDONE DERIVATIVES” (SYNGENTA CROP PROTECTION AG, priority 2021, published 2025).

Key:
Type in all cases: in vivo
Details in all cases: evaluated after 13 days
Setaria faberi (SETFA) [1] = test: Pre-emergence Test, Setaria faberi (SETFA)
[2] = test system: Echinochloa crus-galli (ECHCG); test: Pre-emergence Test, Echinochloa crus-galli (ECHCG)
Zea mays (ZEAMX) [3] = test: Pre-emergence Test, Zea mays (ZEAMX)
[4] = test system: Ipomoea hederacea (IPOHE); test: Pre-emergence Test, Ipomoea hederacea (IPOHE)
[5] = test system: Amaranthus palmeri (AMAPA); test: Pre-emergence Test, Amaranthus palmeri (AMAPA)
[6] = test system: Amaranthus retoflexus (AMARE); test: Pre-emergence Test, Amaranthus retoflexus (AMARE)
Setaria faberi (SETFA) [7] = test: Post-emergence Test, Setaria faberi (SETFA); design: key to percentage damage caused to the plant, SETFA (five-point scale): 5=81-100%, 4=61-80%, 3=41-60%, 2=21-40%, 1=0-20% damage
Summary of the method: (§1)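 Spray application at 1000 g/ha unless otherwise stated. Damage was scored 13 days later as 1 (0-20%) to 5 (81-100%).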

[8] = test system: Echinochloa crus-galli (ECHCG); test: Post-emergence Test, Echinochloa crus-galli (ECHCG); design: key to percentage damage caused to the plant, ECHCG (five-point scale): 5=81-100%, 4=61-80%, 3=41-60%, 2=21-40%, 1=0-20% damage
Summary of the method: as §1

Zea mays (ZEAMX) [9] = test: Post-emergence Test, Zea mays (ZEAMX); design: key to percentage damage caused to the plant, ZEAMX (five-point scale): 5=81-100%, 4=61-80%, 3=41-60%, 2=21-40%, 1=0-20% damage
Summary of the method: as §1

[10] = test system: Ipomoea hederacea (IPOHE); test: Post-emergence Test, Ipomoea hederacea (IPOHE); design: key to percentage damage caused to the plant, IPOHE (five-point scale): 5=81-100%, 4=61-80%, 3=41-60%, 2=21-40%, 1=0-20% damage
Summary of the method: as §1

[11] = test system: Amaranthus palmeri (AMAPA); test: Post-emergence Test, Amaranthus palmeri (AMAPA); design: key: 5=81-100%, 4=61-80%, 3=41-60%, 2=21-40%, 1=0-20% damage
Summary of the method: as §1

[12] = test system: Amaranthus retoflexus (AMARE); test: Post-emergence Test, Amaranthus retoflexus (AMARE); design: key to percentage damage caused to the plant, AMARE (five-point scale): 5=81-100%, 4=61-80%, 3=41-60%, 2=21-40%, 1=0-20% damage
Summary of the method: as §1

CCCOc1ccn(Cc2cc(=O)c(C(=O)O)c(-c3ccc(Cl)c(Cl)c3)n2CC)n1 [Compound 160, 2-(3,4-dichlorophenyl)-1-ethyl-4-oxo-6-[(3-propoxypyrazol-1-yl)methyl]pyridine-3-carboxylic acid]
Pre-emergence Test SETFA, percentage damage caused to the plant (five-point scale) (Setaria faberi (SETFA) [1]; 250 g/Ha (*)): 2 (2=21-40%)
Pre-emergence Test SETFA, percentage damage caused to the plant (five-point scale) (Setaria faberi (SETFA) [1]; 1000 g/ha): 5 (5=81-100%)
Pre-emergence Test ECHCG, percentage damage caused to the plant (five-point scale) ([2]; 250 g/Ha (*)): 2 (2=21-40%)
Pre-emergence Test ECHCG, percentage damage caused to the plant (five-point scale) ([2]; 1000 g/ha): 5 (5=81-100%)
Pre-emergence Test ZEAMX, percentage damage caused to the plant (five-point scale) (Zea mays (ZEAMX) [3]; 250 g/Ha (*)): 0
Pre-emergence Test ZEAMX, percentage damage caused to the plant (five-point scale) (Zea mays (ZEAMX) [3]; 1000 g/ha): 3 (3=41-60%)
Pre-emergence Test IPOHE, percentage damage caused to the plant (five-point scale) ([4]; 250 g/Ha (*)): 2 (2=21-40%)
Pre-emergence Test IPOHE, percentage damage caused to the plant (five-point scale) ([4]; 1000 g/ha): 2 (2=21-40%)
Pre-emergence Test AMAPA, percentage damage caused to the plant (five-point scale) ([5]; 250 g/Ha (*)): 0
Pre-emergence Test AMAPA, percentage damage caused to the plant (five-point scale) ([5]; 1000 g/ha): 0
Pre-emergence Test AMARE, percentage damage caused to the plant (five-point scale) ([6]; 250 g/Ha (*)): 0
Pre-emergence Test AMARE, percentage damage caused to the plant (five-point scale) ([6]; 1000 g/ha): 1 (1=0-20%)
percentage damage caused to the plant, SETFA (five-point scale) (Setaria faberi (SETFA) [7]; 250 g/Ha): 2 (2=21-40%)
percentage damage caused to the plant, SETFA (five-point scale) (Setaria faberi (SETFA) [7]; 1000 g/ha): 4 (4=61-80%)
percentage damage caused to the plant, ECHCG (five-point scale) ([8]; 250 g/Ha): 2 (2=21-40%)
percentage damage caused to the plant, ECHCG (five-point scale) ([8]; 1000 g/ha): 4 (4=61-80%)
percentage damage caused to the plant, ZEAMX (five-point scale) (Zea mays (ZEAMX) [9]; 250 g/Ha): 1 (1=0-20%)
percentage damage caused to the plant, ZEAMX (five-point scale) (Zea mays (ZEAMX) [9]; 1000 g/ha): 4 (4=61-80%)
percentage damage caused to the plant, IPOHE (five-point scale) ([10]; 250 g/Ha): 3 (3=41-60%)
percentage damage caused to the plant, IPOHE (five-point scale) ([10]; 1000 g/ha): 3 (3=41-60%)
percentage damage caused to the plant, AMAPA (five-point scale) ([11]; 250 g/Ha): 0
percentage damage caused to the plant, AMAPA (five-point scale) ([11]; 1000 g/ha): 1 (1=0-20%)
percentage damage caused to the plant, AMARE (five-point scale) ([12]; 250 g/Ha): 0
percentage damage caused to the plant, AMARE (five-point scale) ([12]; 1000 g/ha): 1 (1=0-20%)

CCn1c(Cn2ccc(OCCOC)n2)cc(=O)c(C(=O)O)c1-c1ccc(Cl)c(Cl)c1 [Compound 161, 2-(3,4-dichlorophenyl)-1-ethyl-6-[[3-(2-methoxyethoxy)pyrazol-1-yl]methyl]-4-oxo-pyridine-3-carboxylic acid]
Pre-emergence Test SETFA, percentage damage caused to the plant (five-point scale) (Setaria faberi (SETFA) [1]; 250 g/Ha (*)): 1 (1=0-20%)
Pre-emergence Test SETFA, percentage damage caused to the plant (five-point scale) (Setaria faberi (SETFA) [1]; 1000 g/ha): 4 (4=61-80%)
Pre-emergence Test ECHCG, percentage damage caused to the plant (five-point scale) ([2]; 250 g/Ha (*)): 0
Pre-emergence Test ECHCG, percentage damage caused to the plant (five-point scale) ([2]; 1000 g/ha): 3 (3=41-60%)
Pre-emergence Test ZEAMX, percentage damage caused to the plant (five-point scale) (Zea mays (ZEAMX) [3]; 250 g/Ha (*)): 0
Pre-emergence Test ZEAMX, percentage damage caused to the plant (five-point scale) (Zea mays (ZEAMX) [3]; 1000 g/ha): 0
Pre-emergence Test IPOHE, percentage damage caused to the plant (five-point scale) ([4]; 250 g/Ha (*)): 0
Pre-emergence Test IPOHE, percentage damage caused to the plant (five-point scale) ([4]; 1000 g/ha): 3 (3=41-60%)
Pre-emergence Test AMAPA, percentage damage caused to the plant (five-point scale) ([5]; 250 g/Ha (*)): 0
Pre-emergence Test AMAPA, percentage damage caused to the plant (five-point scale) ([5]; 1000 g/ha): 1 (1=0-20%)
Pre-emergence Test AMARE, percentage damage caused to the plant (five-point scale) ([6]; 250 g/Ha (*)): 0
Pre-emergence Test AMARE, percentage damage caused to the plant (five-point scale) ([6]; 1000 g/ha): 0
percentage damage caused to the plant, SETFA (five-point scale) (Setaria faberi (SETFA) [7]; 250 g/Ha): 2 (2=21-40%)
percentage damage caused to the plant, SETFA (five-point scale) (Setaria faberi (SETFA) [7]; 1000 g/ha): 3 (3=41-60%)
percentage damage caused to the plant, ECHCG (five-point scale) ([8]; 250 g/Ha): 2 (2=21-40%)
percentage damage caused to the plant, ECHCG (five-point scale) ([8]; 1000 g/ha): 3 (3=41-60%)
percentage damage caused to the plant, ZEAMX (five-point scale) (Zea mays (ZEAMX) [9]; 250 g/Ha): 1 (1=0-20%)
percentage damage caused to the plant, ZEAMX (five-point scale) (Zea mays (ZEAMX) [9]; 1000 g/ha): 1 (1=0-20%)
percentage damage caused to the plant, IPOHE (five-point scale) ([10]; 250 g/Ha): 1 (1=0-20%)
percentage damage caused to the plant, IPOHE (five-point scale) ([10]; 1000 g/ha): 3 (3=41-60%)
percentage damage caused to the plant, AMAPA (five-point scale) ([11]; 250 g/Ha): 0
percentage damage caused to the plant, AMAPA (five-point scale) ([11]; 1000 g/ha): 1 (1=0-20%)
percentage damage caused to the plant, AMARE (five-point scale) ([12]; 250 g/Ha): 1 (1=0-20%)
percentage damage caused to the plant, AMARE (five-point scale) ([12]; 1000 g/ha): 0
